Laboratory results: ChEMBL document CHEMBL5543061, “Recent advances of antitumor leading compound Erianin: Mechanisms of action and structural modification” (Eur J Med Chem, 2023)

Experiments:
[1] = system: PLC-PRF-5; assay: Antiproliferative activity against human PLC-PRF-5 cells; assay type: functional, cell-based
[2] = Antiproliferative activity against human MG-63.3 cells assessed as reduction in cell viability measured for 72 hrs by MTT assay; assay type: functional, cell-based; conditions: MG-63.3, 72 h
[3] = system: Huh-7; assay: Antiproliferative activity against human Huh-7 cells; assay type: functional, cell-based
[4] = system: HepG2; assay: Anticancer activity against human HepG2 cells assessed as reduction in cell viability measured for 24 hrs by MTT assay; assay type: functional, cell-based; conditions: HepG2, 24 h
[5] = Antiproliferative activity against human MG-63.3 cells assessed as reduction in cell viability measured for 48 hrs by MTT assay; assay type: functional, cell-based; conditions: MG-63.3, 48 h
[6] = Half life in Beagle dog at 7.5 mg/kg, iv measured for 8 to 12 hrs by LC-MS/MS analysis; assay type: ADME, organism-based, Canis lupus familiaris; conditions: in vivo, time 8-12 hrs
[7] = system: Ishikawa; assay: Antiproliferative activity against human Ishikawa cells assessed as reduction in cell viability by MTS assay; assay type: functional, cell-based
[8] = system: HepG2; assay: Antiproliferative activity against human HepG2 cells assessed as reduction in cell growth; assay type: functional, cell-based
[9] = Half life in rat at 50 mg/kg, iv; assay type: ADME, organism-based; conditions: in vivo
[10] = system: MIA PaCa-2; assay: Antiproliferative activity against human MIA PaCa-2 cells assessed as reduction of cell viability incubated for 72 hrs by CCK-8 assay; assay type: functional, cell-based; conditions: MIA PaCa-2, 72 h
[11] = system: MCF7; assay: Antiproliferative activity against human MCF7 cells assessed as reduction in cell viability incubated for 72 hrs by MTT assay; assay type: functional, cell-based; conditions: MCF7, 72 h
[12] = system: HeLa; assay: Antiproliferative activity against human HeLa cells assessed as reduction in cell viability by MTT assay; assay type: functional, cell-based
[13] = system: HuH-1; assay: Antiproliferative activity against human HuH-1 cells; assay type: functional, cell-based
[14] = system: Bel-7402; assay: Antiproliferative activity against human Bel-7402 cells incubated for 72 hrs by MTT assay; assay type: functional, cell-based; conditions: Bel-7402, 72 h
[15] = system: MDA-MB-468; assay: Antiproliferative activity against human MDA-MB-468 cells assessed as reduction in cell viability incubated for 72 hrs by MTT assay; assay type: functional, cell-based; conditions: MDA-MB-468, 72 h
[16] = Antiproliferative activity against human MG-63.3 cells assessed as reduction in cell viability measured for 24 hrs by MTT assay; assay type: functional, cell-based; conditions: MG-63.3, 24 h
[17] = system: A549; assay: Antiproliferative activity against human A549 cells assessed as reduction in cell viability incubated for 72 hrs by MTT assay; assay type: functional, cell-based; conditions: A549, 72 h
[18] = system: HCC 2998; assay: Antiproliferative activity against human HCC 2998 cells assessed as reduction in cell viability incubated for 72 hrs by MTT assay; assay type: functional, cell-based; conditions: HCC 2998, 72 h
[19] = system: MDA-MB-231; assay: Antiproliferative activity against human MDA-MB-231 cells assessed as reduction in cell viability incubated for 24 hrs by MTT assay; assay type: functional, cell-based; conditions: MDA-MB-231, 24 h
[20] = Antiproliferative activity against human EFM-192A cells; assay type: functional, cell-based
[21] = system: SMMC-7721; assay: Antiproliferative activity against human SMMC-7721 cells assessed as reduction in cell viability incubated for 24 hrs by CCK-8 assay; assay type: functional, cell-based; conditions: SMMC-7721, 24 h
[22] = Oral bioavailability in rat at 10 mg/kg; assay type: ADME, organism-based; conditions: in vivo
[23] = system: HLE; assay: Antiproliferative activity against human HLE cells; assay type: functional, cell-based
[24] = system: 143B; assay: Antiproliferative activity against human 143B cells assessed as inhibition of cell growth measured after 48 hrs by MTT assay; assay type: functional, cell-based
[25] = Half life in rat at 25 mg/kg, iv; assay type: ADME, organism-based; conditions: in vivo
[26] = system: HepG2; assay: Anticancer activity against human HepG2 cells assessed as cell growth reduction incubated for 48 hrs by MTT assay; assay type: functional, cell-based; conditions: HepG2, 48 h
[27] = system: 143B; assay: Antiproliferative activity against human 143B cells assessed as inhibition of cell growth measured after 24 hrs by MTT assay; assay type: functional, cell-based
[28] = system: T-24; assay: Antiproliferative activity against human T24 cells assessed as reduction in cell viability incubated for 48 hrs by MTT assay; assay type: functional, cell-based; conditions: T-24, 48 h
[29] = Half life in rat at 100 mg/kg, iv; assay type: ADME, organism-based; conditions: in vivo
[30] = system: HepG2; assay: Anticancer activity against human HepG2 cells assessed as reduction in cell viability; assay type: functional, cell-based
[31] = system: HL-60; assay: Cytotoxicity against human HL-60 cells assessed as reduction in cell viability incubated for 48 hrs by MTT assay; assay type: functional, cell-based; conditions: HL-60, 48 h
[32] = system: LLC-MK2; assay: Antiproliferative activity against Rhesus monkey LLC-MK2 cells assessed as reduction in cell viability incubated for 48 hrs by MTT assay; assay type: functional, cell-based; conditions: Macaca mulatta, LLC-MK2, 48 h
[33] = system: PC-3; assay: Antiproliferative activity against human PC-3 cells assessed as reduction of cell viability incubated for 24 to 72 hrs by CCK-8 assay; assay type: functional, cell-based
[34] = Antiproliferative activity against human HEC-251 cells assessed as reduction in cell viability; assay type: functional, cell-based
[35] = system: HCT-116; assay: Antiproliferative activity against human HCT-116 cells assessed as reduction in cell viability incubated for 72 hrs by MTT assay; assay type: functional, cell-based; conditions: HCT-116, 72 h
[36] = Half life in Beagle dog at 30 mg/kg, iv measured for 8 to 12 hrs by LC-MS/MS analysis; assay type: ADME, organism-based, Canis lupus familiaris; conditions: in vivo, time 8-12 hrs
[37] = Elimination half life in rat at 2 mg/kg, iv; assay type: ADME, organism-based; conditions: in vivo, read-out: beta t1/2 (converted)
[38] = Half life in Beagle dog at 15 mg/kg, iv measured for 8 to 12 hrs by LC-MS/MS analysis; assay type: ADME, organism-based, Canis lupus familiaris; conditions: in vivo, time 8-12 hrs
[39] = system: HepG2; assay: Antiproliferative activity against human HepG2 cells assessed as inhibition of cell growth relative to control; assay type: functional; design: scale not given: the % may be the effect or the level left
[40] = system: SNU-449; assay: Antiproliferative activity against human SNU-449 cells; assay type: functional, cell-based
[41] = system: A549; assay: Antiproliferative activity against human A549 cells assessed as reduction in cell viability incubated for 48 hrs by MTT assay; assay type: functional, cell-based; conditions: A549, 48 h
[42] = system: HepG2; assay: Antiproliferative activity against human HepG2 cells; assay type: functional, cell-based
[43] = system: A-375; assay: Antiproliferative activity against human A-375 cells assessed as reduction in cell viability incubated for 72 hrs by MTT assay; assay type: functional, cell-based; conditions: A-375, 72 h
[44] = system: HepG2; assay: Anticancer activity against human HepG2 cells assessed as cell growth reduction incubated for 24 hrs by MTT assay; assay type: functional, cell-based; conditions: HepG2, 24 h
[45] = system: LNCaP; assay: Cytotoxicity against human LNCaP cells assessed as reduction in cell growth incubated for 24 hrs by MTT assay; assay type: functional, cell-based
[46] = system: 143B; assay: Antiproliferative activity against human 143B cells assessed as inhibition of cell growth measured after 72 hrs by MTT assay; assay type: functional, cell-based
[47] = system: EJM; assay: Antitumor activity against human EJM cells assessed as reduction in cell viability incubated for 24 hrs by CCK-8 assay; assay type: functional, cell-based
[48] = system: LNCaP; assay: Cytotoxicity against human LNCaP cells assessed as reduction in cell growth incubated for 72 hrs by MTT assay; assay type: functional, cell-based
[49] = system: HeLa; assay: Antiproliferative activity against human HeLa cells assessed as reduction in cell viability incubated for 48 hrs by MTT assay; assay type: functional, cell-based
[50] = system: SK-MEL3; assay: Antiproliferative activity against human SK-MEL3 cells harboring BRAF V600E mutant assessed as reduction in cell viability by cell-titer Glo assay; assay type: functional, cell-based
[51] = system: LNCaP; assay: Cytotoxicity against human LNCaP cells assessed as reduction in cell growth incubated for 48 hrs by MTT assay; assay type: functional, cell-based
[52] = Antiproliferative activity against human SNU-739 cells; assay type: functional, cell-based
[53] = system: HL-60; assay: Antiproliferative activity against human HL-60 cells assessed as reduction in cell viability incubated for 72 hrs by MTT assay; assay type: functional, cell-based; conditions: HL-60, 72 h
[54] = system: NCI-H1975; assay: Antiproliferative activity against human NCI-H1975 cells assessed as reduction in cell viability incubated for 48 hrs by MTT assay; assay type: functional, cell-based; conditions: NCI-H1975, 48 h
[55] = system: HCT-116; assay: Anticancer activity against human HCT-116 cells; assay type: functional, cell-based
[56] = system: A549; assay: Cytotoxicity against human A549 cells assessed as reduction in cell viability incubated for 48 hrs by Alamar Blue assay; assay type: functional, cell-based; conditions: A549, 48 h
[57] = system: MCF7; assay: Cytotoxicity against human MCF7 cells assessed as reduction in cell viability incubated for 72 hrs by MTT assay; assay type: functional, cell-based; conditions: MCF7, 72 h
[58] = system: HeLa; assay: Cytotoxicity against human HeLa cells assessed as reduction in cell viability by MTT assay; assay type: functional, cell-based
[59] = system: HepG2; assay: Antiproliferative activity against human HepG2 cells assessed as inhibition of cell growth incubated for 72 hrs by CCK-8 assay relative to control; assay type: functional; design: scale not given: the % may be the effect or the level left
[60] = system: HCT-116; assay: Antiproliferative activity against human HCT-116 cells assessed as inhibition of cell growth incubated for 72 hrs by CCK-8 assay relative to control; assay type: functional; design: scale not given: the % may be the effect or the level left
[61] = system: HeLa; assay: Antiproliferative activity against human HeLa cells assessed as inhibition of cell growth incubated for 72 hrs by CCK-8 assay relative to control; assay type: functional; design: scale not given: the % may be the effect or the level left

COc1ccc(CCc2cc(OC)c(OC)c(OC)c2)cc1O
IC50 [1]: 55 nM
IC50 [2]: 17.2 nM
IC50 [3]: 44.3 nM
IC50 [4]: 43.7 nM
IC50 [5]: 44.3 nM
half-life [6]: 1.41 h
IC50 [7]: 40.6 nM
IC50 [8]: 175 nM
half-life [9]: 3.75 h
IC50 [10]: 50 nM
IC50 [11]: 60 nM
IC50 [12]: 220 nM
IC50 [13]: 25.9 nM
IC50 [14]: 21.5 nM
IC50 [15]: 40 nM
IC50 [16]: 88.7 nM
IC50 [17]: 70 nM
IC50 [18]: 70 nM
IC50 [19]: 71 nM
IC50 [20]: 78.6 nM
IC50 [21]: 81 nM
bioavailability [22]: 8.7%
IC50 [23]: 28.6 nM
IC50 [24]: 41 nM
half-life [25]: 3.66 h
IC50 [26]: 120 nM
IC50 [27]: 58.2 nM
IC50 [28]: 45.9 nM
half-life [29]: 3.89 h
IC50 [30]: 72.8 nM
IC50 [31]: 40 nM
IC50 [32]: 2.3 nM
IC50 [33]: 26 nM
IC50 [34]: 41.8 nM
IC50 [35]: 60 nM
half-life [36]: 1.6 h
half-life [37]: 1.5 h
half-life [38]: 1.66 h
Activity [39]: 82.81%
IC50 [40]: 236 nM
IC50 [41]: 0.6 nM
IC50 [42]: 584 nM
IC50 [43]: 20.6 nM
IC50 [44]: 128 nM
IC50 [45]: 33.8 nM
IC50 [46]: 26.8 nM
IC50 [47]: 65 nM
IC50 [48]: 26.2 nM
IC50 [49]: 8300 nM
IC50 [50]: 12 nM
IC50 [51]: 26.5 nM
IC50 [52]: 17.7 nM
IC50 [53]: 38 nM
IC50 [54]: 0.5 nM

Oc1ccc(CCc2cc(O)c(O)c(O)c2)cc1O
IC50 [55]: 42000 nM
IC50 [56]: 42000 nM

COc1cc(CCc2ccc(OC(F)F)c(N)c2)cc(OC)c1OC
IC50 [57]: 130 nM

CCOc1ccc(CCc2cc(OC)c(OC)c(OC)c2)cc1OP(=O)(O)O
IC50 [58]: 570 nM

COc1ccc(/C=C\c2cc(OC)c(OC)c(OC)c2)cc1OP(=O)(O)O [FOSBRETABULIN]
Activity [59]: 88.6%
Activity [60]: 86.1%
Activity [61]: 84.7%
